29 compounds from patent US8697739B2, “Bicyclic acetyl-CoA carboxylase inhibitors and uses thereof” (Novartis AG, priority 2010, dated 2014) can be followed below.

SMILES strings stand for the structures. Where only a bound is given, the exact number is not on record here.

T1 sequence (O00763 144-2458): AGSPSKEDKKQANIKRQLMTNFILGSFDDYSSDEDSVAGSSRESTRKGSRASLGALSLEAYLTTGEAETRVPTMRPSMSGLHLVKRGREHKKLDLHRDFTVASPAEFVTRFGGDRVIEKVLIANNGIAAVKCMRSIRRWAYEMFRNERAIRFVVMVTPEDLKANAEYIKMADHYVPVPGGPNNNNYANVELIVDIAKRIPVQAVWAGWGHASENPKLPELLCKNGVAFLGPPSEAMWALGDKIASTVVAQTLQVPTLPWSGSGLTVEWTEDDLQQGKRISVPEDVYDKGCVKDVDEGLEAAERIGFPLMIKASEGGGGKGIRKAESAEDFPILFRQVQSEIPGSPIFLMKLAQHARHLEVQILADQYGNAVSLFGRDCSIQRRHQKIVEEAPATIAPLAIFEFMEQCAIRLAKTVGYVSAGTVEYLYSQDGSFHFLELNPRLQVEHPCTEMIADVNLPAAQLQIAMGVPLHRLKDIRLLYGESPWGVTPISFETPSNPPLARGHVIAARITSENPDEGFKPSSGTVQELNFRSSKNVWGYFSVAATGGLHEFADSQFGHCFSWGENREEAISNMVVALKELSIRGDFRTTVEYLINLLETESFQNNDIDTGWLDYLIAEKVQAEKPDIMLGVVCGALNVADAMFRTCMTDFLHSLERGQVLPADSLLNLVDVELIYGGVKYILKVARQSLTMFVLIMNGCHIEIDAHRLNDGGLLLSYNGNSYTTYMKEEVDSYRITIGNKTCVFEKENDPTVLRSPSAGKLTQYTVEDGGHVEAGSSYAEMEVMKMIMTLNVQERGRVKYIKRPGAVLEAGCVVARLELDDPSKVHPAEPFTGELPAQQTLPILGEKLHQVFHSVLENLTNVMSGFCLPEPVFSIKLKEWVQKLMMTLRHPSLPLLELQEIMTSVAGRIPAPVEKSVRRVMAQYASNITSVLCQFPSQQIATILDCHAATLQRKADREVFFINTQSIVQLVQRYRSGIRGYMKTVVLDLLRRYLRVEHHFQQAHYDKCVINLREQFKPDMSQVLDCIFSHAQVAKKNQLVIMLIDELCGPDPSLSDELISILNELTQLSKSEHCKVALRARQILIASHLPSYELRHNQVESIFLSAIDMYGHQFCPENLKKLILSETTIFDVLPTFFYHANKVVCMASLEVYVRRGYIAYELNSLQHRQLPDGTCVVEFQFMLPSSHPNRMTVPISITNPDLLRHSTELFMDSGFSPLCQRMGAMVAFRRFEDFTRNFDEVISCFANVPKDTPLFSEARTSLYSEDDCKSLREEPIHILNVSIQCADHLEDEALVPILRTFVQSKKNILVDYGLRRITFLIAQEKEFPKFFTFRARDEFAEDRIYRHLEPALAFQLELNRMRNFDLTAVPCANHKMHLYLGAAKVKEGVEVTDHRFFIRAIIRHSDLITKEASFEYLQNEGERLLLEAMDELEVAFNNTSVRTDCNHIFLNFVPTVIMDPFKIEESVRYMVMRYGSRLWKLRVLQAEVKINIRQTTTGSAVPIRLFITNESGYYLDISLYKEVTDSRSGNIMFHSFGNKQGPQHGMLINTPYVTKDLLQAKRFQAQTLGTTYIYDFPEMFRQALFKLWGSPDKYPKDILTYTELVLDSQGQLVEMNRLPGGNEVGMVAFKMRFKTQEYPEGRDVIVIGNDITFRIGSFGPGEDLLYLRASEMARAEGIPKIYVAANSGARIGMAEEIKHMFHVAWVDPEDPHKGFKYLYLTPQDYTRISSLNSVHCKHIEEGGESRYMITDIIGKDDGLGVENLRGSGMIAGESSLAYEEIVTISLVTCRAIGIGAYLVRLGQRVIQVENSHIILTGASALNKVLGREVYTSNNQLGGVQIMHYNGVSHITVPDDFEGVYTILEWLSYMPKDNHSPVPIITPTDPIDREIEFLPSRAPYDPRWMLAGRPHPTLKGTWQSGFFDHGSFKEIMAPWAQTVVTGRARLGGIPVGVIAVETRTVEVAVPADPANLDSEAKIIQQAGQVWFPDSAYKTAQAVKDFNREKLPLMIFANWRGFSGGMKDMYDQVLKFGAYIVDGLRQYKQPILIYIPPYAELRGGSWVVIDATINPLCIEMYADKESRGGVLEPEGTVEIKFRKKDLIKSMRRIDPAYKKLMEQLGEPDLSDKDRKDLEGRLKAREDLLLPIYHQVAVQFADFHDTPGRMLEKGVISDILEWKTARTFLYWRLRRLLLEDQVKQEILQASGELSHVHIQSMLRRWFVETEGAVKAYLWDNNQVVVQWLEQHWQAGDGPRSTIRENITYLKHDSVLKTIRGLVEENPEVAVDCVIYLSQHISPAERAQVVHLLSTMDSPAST

The assay has as its target T1, human acetyl-CoA carboxylase 2 (ACC2) (Homo sapiens, UniProt O00763).
T1 construct: The cDNA encoding amino acids 144 to 2458 of human acetyl-CoA carboxylase 2; made in house; host or cells: Sf9 insect cells (baculovirus, pFastBac1)
As to the kind of experiment: Acetyl-CoA carboxylase enzyme assay (malonyl-CoA formation by LC/MS/MS). It is filed as biochemical. The settings on record: recombinant human ACC2 (aa 144-2458); read-out: IC50 ACC2. The method in brief: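 Malonyl-CoA formation was read by LC/MS/MS MRM against a [13C3]-malonyl-CoA internal standard, after acetic acid quench. The enzyme was baculovirus/Sf9-expressed human ACC2 residues 144–2458, given 15 minutes room-temperature compound preincubation in HEPES pH 7.5 buffer with MgCl2, citrate and DTT. Substrate solution held 50 μM acetyl-CoA, 120 μM ATP and 2 mM KHCO3.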
The IC50 is the concentration that inhibits the measured activity by half. As for `C[C@@H](NC(=O)[C@H]1CC[C@H](NS(=O)(=O)c2ccc3[nH]cnc3c2)CC1)c1ccc(F)cc1` [Example 107, (1r,4R)-4-(1H-benzo[d]imidazole-5-sulfonamido)-N-((R)-1-(4-fluorophenyl)ethyl)cyclohexanecarboxamide], the IC50 came to 205 nM.
Under `COC(=O)[C@H]1CC[C@H](NS(=O)(=O)c2ccc3nc(-c4ccccc4)[nH]c3c2)CC1` [Example 98, (1r,4r)-methyl 4-(2-phenyl-1H-benzo[d]imidazole-6-sulfonamido)cyclohexanecarboxylate] stands 4300 nM; under `O=C([C@H]1CC[C@H](NS(=O)(=O)c2ccc3c(c2)NC(C(F)(F)F)CC3)CC1)N1CCNCC1c1ccccc1` (some centres unmarked) [Example 187, N-((1r,4r)-4-(2-phenylpiperazine-1-carbonyl)cyclohexyl)-2-(trifluoromethyl)-1,2,3,4-tetrahydroquinoline-7-sulfonamide], 245 nM; under `C[C@@H](NC(=O)[C@H]1CC[C@H](NS(=O)(=O)c2ccc3nc(CCC(=O)O)ccc3c2)CC1)c1ccc(F)cc1` [Example 219, 3-(6-(N-((1R,4r)-4-((R)-1-(4-fluorophenyl)ethylcarbamoyl)cyclohexyl)sulfamoyl)quinolin-2-yl)propanoic acid], 495 nM.
Under `C[C@@H](NC(=O)[C@H]1CC[C@H](NS(=O)(=O)c2cccc3ccccc23)CC1)c1ccc(F)cc1` [Example 678, (1r,4R)-N-((R)-1-(4-fluorophenyl)ethyl)-4-(naphthalene-1-sulfonamido)cyclohexanecarboxamide] stands 433 nM; under `CCn1c(-c2ccccc2)cc2ccc(S(=O)(=O)N[C@H]3CC[C@H](C(=O)N4CCOC[C@@H]4C)CC3)cc21` [Example 486, 1-ethyl-N-((1S,4r)-4-((S)-3-methylmorpholine-4-carbonyl)cyclohexyl)-2-phenyl-1H-indole-6-sulfonamide], 75 nM; under `C[C@@H](NC(=O)[C@H]1CC[C@H](NS(=O)(=O)c2ccc3nc(-c4ccccc4)cn3c2)CC1)c1ccc(F)cc1` [Example 79, (1r,4R)-N-((R)-1-(4-fluorophenyl)ethyl)-4-(2-phenylimidazo[1,2-a]pyridine-6-sulfonamido)cyclohexanecarboxamide], 115 nM.
The result for `C[C@@H](NC(=O)[C@H]1CC[C@H](NS(=O)(=O)c2ccc3cc(C4CC4)[nH]c3c2)CC1)c1ccc(F)cc1` [Example 290, (1r,4R)-4-(2-cyclopropyl-1H-indole-6-sulfonamido)-N-((R)-1-(4-fluorophenyl)ethyl)cyclohexanecarboxamide] reads 28 nM.
Consider `COc1cccc(Nc2nc3cc(S(=O)(=O)Nc4ccc(C(=O)OC(C)C)cc4)ccc3[nH]2)c1` [Example 524, isopropyl 4-(2-(3-methoxyphenylamino)-1H-benzo[d]imidazole-5-sulfonamido)benzoate], for which the IC50 is 360 nM.
Under `Cn1c(-c2ccccc2)cc2ccc(S(=O)(=O)N[C@H]3CC[C@H](C(=O)N4CCC(O)C4)CC3)cc21` (some centres unmarked) [Example 433, N-((1r,4r)-4-(3-hydroxypyrrolidine-1-carbonyl)cyclohexyl)-1-methyl-2-phenyl-1H-indole-6-sulfonamide] stands 445 nM; under `C[C@H]1C[C@H](C)CN(C(=O)[C@H]2CC[C@H](NS(=O)(=O)c3ccc4[nH]c(-c5ccccc5)nc4c3)CC2)C1` [Example 665, N-((1S,4r)-4-((3S,5S)-3,5-dimethylpiperidine-1-carbonyl)cyclohexyl)-2-phenyl-1H-benzo[d]imidazole-5-sulfonamide], 40 nM; under `C[C@@H]1C[C@H](C)CN(C(=O)[C@H]2CC[C@H](NS(=O)(=O)c3ccc4[nH]c(-c5ccccc5)nc4c3)CC2)C1` [Example 666, N-((1R,4r)-4-((3S,5R)-3,5-dimethylpiperidine-1-carbonyl)cyclohexyl)-2-phenyl-1H-benzo[d]imidazole-5-sulfonamide], 30 nM.
For `Cc1nc2cc(S(=O)(=O)N[C@H]3CC[C@H](c4nnc(C(C)(C)C)o4)CC3)ccc2n1Cc1ccccc1` [Example 657, 1-benzyl-N-((1r,4r)-4-(5-tert-butyl-1,3,4-oxadiazol-2-yl)cyclohexyl)-2-methyl-1H-benzo[d]imidazole-5-sulfonamide], the IC50 was greater than 35000 nM.
The result for `Cn1c(CCC(=O)O)c(Cl)c2ccc(S(=O)(=O)N[C@H]3CC[C@H](C(=O)N4CCCC4c4ccc(F)cc4)CC3)cc21` (some centres unmarked) [Example 372, 3-(3-chloro-6-(N-((1r,4r)-4-(2-(4-fluorophenyl)pyrrolidine-1-carbonyl)cyclohexyl)sulfamoyl)-1-methyl-1H-indol-2-yl)propanoic acid] reads 45 nM.
Turning to `Cc1ccccc1-c1cc2ccc(S(=O)(=O)N[C@H]3CC[C@H](C(=O)N4CCCC(C(F)(F)F)C4)CC3)cc2[nH]1` (some centres unmarked) [Example 321, 2-o-tolyl-N-((1r,4r)-4-(3-(trifluoromethyl)piperidine-1-carbonyl)cyclohexyl)-1H-indole-6-sulfonamide], the IC50 worked out at 250 nM.
The result for `C[C@@H](NC(=O)[C@H]1CC[C@H](NS(=O)(=O)c2ccc3[nH]c(-c4ccccc4)cc3c2)CC1)c1ccc(F)cc1` [Example 102, (1r,4R)-N-((R)-1-(4-fluorophenyl)ethyl)-4-(2-phenyl-1H-indole-5-sulfonamido)cyclohexanecarboxamide] reads 45 nM.
Under `CC(=O)Nc1ccc(-c2nc3ccc(S(=O)(=O)N[C@H]4CC[C@H](C(=O)OC(C)C)CC4)cc3[nH]2)cc1` [Example 8, (1r,4r)-isopropyl 4-(2-(4-acetamidophenyl)-1H-benzo[d]imidazole-5-sulfonamido)cyclohexanecarboxylate] stands 45 nM; under `C[C@@H](NC(=O)[C@H]1CC[C@H](NS(=O)(=O)c2ccc3[nH]c(-c4ccccc4)cc3c2)CC1)c1ccccc1` [Example 13, (1r,4R)-4-(2-phenyl-1H-indole-5-sulfonamido)-N—((R)-1-phenylethyl)cyclohexanecarboxamide], 65 nM; under `COC(=O)C1CCc2ccc(S(=O)(=O)N[C@H]3CC[C@H](C(=O)N[C@H](C)c4ccc(F)cc4)CC3)cc2N1C` (stereo partly drawn) [Example 224, methyl 7-(N-((1R,4r)-4-((R)-1-(4-fluorophenyl)ethylcarbamoyl)cyclohexyl)sulfamoyl)-1-methyl-1,2,3,4-tetrahydroquinoline-2-carboxylate], 60 nM.
Regarding `COc1ccc2cc(S(=O)(=O)N[C@H]3CC[C@H](C(=O)N[C@H](C)c4ccc(F)cc4)CC3)ccc2n1` [Example 49, (1r,4R)-N-((R)-1-(4-fluorophenyl)ethyl)-4-(2-methoxyquinoline-6-sulfonamido)cyclohexanecarboxamide], the IC50 came to 43 nM.
Under `Cn1c(-c2ccccc2)cc2cc(S(=O)(=O)N[C@H]3CC[C@H](C(=O)N4CCN[C@H](C(F)(F)F)C4)CC3)ccc21` [Example 86, 1-methyl-2-phenyl-N-((1S,4r)-4-((S)-3-(trifluoromethyl)piperazine-1-carbonyl)cyclohexyl)-1H-indole-5-sulfonamide] stands 75 nM; under `COCCc1ccc(-c2cc3ccc(S(=O)(=O)N[C@H]4CC[C@H](C(=O)N5CCOC[C@@H]5C5CC5)CC4)cc3[nH]2)cc1` [Example 470, N-((1S,4r)-4-((S)-3-cyclopropylmorpholine-4-carbonyl)cyclohexyl)-2-(4-(2-methoxyethyl)phenyl)-1H-indole-6-sulfonamide], less than 10 nM.
Under `C[C@@H](NC(=O)[C@H]1CC[C@H](NS(=O)(=O)c2ccc3c(c2)NCCC3(C)C)CC1)c1ccc(F)cc1` [Example 196, (1r,4R)-4-(4,4-dimethyl-1,2,3,4-tetrahydroquinoline-7-sulfonamido)-N-((R)-1-(4-fluorophenyl)ethyl)cyclohexanecarboxamide] stands 220 nM; under `O=C([C@H]1CC[C@H](NS(=O)(=O)c2cnc3ccccc3c2)CC1)N1CCCCC1c1ccccc1` (some centres unmarked) [Example 59, N-((1r,4r)-4-(2-phenylpiperidine-1-carbonyl)cyclohexyl)quinoline-3-sulfonamide], 339 nM.
Under `C[C@@H](NC(=O)[C@H]1CC[C@H](NS(=O)(=O)c2cnc3c(c2)CCCN3C)CC1)c1ccc(F)cc1` [Example 145, (1r,4R)-N-((R)-1-(4-fluorophenyl)ethyl)-4-(8-methyl-5,6,7,8-tetrahydro-1,8-naphthyridine-3-sulfonamido)cyclohexanecarboxamide] stands 128 nM; under `C[C@@H](NC(=O)[C@H]1CC[C@H](NS(=O)(=O)c2ccc3c(c2)OCCO3)CC1)c1ccc(F)cc1` [Example 123, (1r,4R)-4-(2,3-dihydrobenzo[b][1,4]dioxine-6-sulfonamido)-N-((R)-1-(4-fluorophenyl)ethyl)cyclohexanecarboxamide], 450 nM; under `CC(C)OC(=O)c1ccc(NS(=O)(=O)c2ccc3[nH]c(Nc4ccccc4F)nc3c2)cc1` [Example 546, isopropyl 4-(2-(2-fluorophenylamino)-1H-benzo[d]imidazole-5-sulfonamido)benzoate], 845 nM.
In the case of `CCOC(=O)C1CCCCN1C(=O)[C@H]1CC[C@H](NS(=O)(=O)c2ccc3cc(-c4ccc(COC)cc4)n(C)c3c2)CC1` (some centres unmarked) [Example 341, ethyl 1-((1r,4r)-4-(2-(4-(methoxymethyl)phenyl)-1-methyl-1H-indole-6-sulfonamido)cyclohexanecarbonyl)piperidine-2-carboxylate], the IC50 stood at 240 nM.
As to `COCc1ccc(-c2cc3ccc(S(=O)(=O)N[C@H]4CC[C@H](C(=O)N5CCOC[C@@H]5C)CC4)cc3[nH]2)cc1` [Example 436, 2-(4-(methoxymethyl)phenyl)-N-((1S,4r)-4-((S)-3-methylmorpholine-4-carbonyl)cyclohexyl)-1H-indole-6-sulfonamide], the IC50 was found to be 20 nM.
